Tests used:
BEAS-2B cells = experiment: CellTiter Glo assay; settings: P8-H tested up to 30 μM
Description: performed according to manufacturer instruction and using BEAS-2B cells

[1] = target: T1, human Keap1 Kelch domain (A321-T609) (Homo sapiens, UniProt Q14145); experiment: Surface plasmon resonance (SPR) direct binding assay, immobilised Keap1 Kelch domain; settings: Table 1
T1 construct: human Keap1 Kelch domain (A321-T609) fused with N-terminal 6x His-tag; 6xHis (N); made in house
Description: (§1) We based the design of our Nrf2-like cyclic peptides around the amino acid sequence of the ETGE motif (namely 12-mer ^73[…]^84L) and SAR studies reported in the literature.[9,10,12,14] The […] motif is known to adopt a beta-turn conformation upon binding to Keap1. Residues Q73-Q75 and L85 stabilise the bound conformation, L76-D77 and E79-G81 bind deep into the pocket with E79 and E82 forming electrostatic interactions with Keap1 and D77 and T80 stabilising the beta-turn via H-bonds with E78 not contributing to the binding. […] The ability of the cyclic peptides to bind to the Kelch domain of Keap1 was evaluated using surface plasma resonance (SPR), where the Kelch domain is immobilised onto a SPR sensor chip. Additionally, we assessed the ability of the peptides to inhibit the PPI between Nrf2 and the Kelch domain of Keap1 using a time-resolved FRET (TR-FRET) assay. Here, the IC50 for inhibition of the interaction between the human Keap1 Kelch domain and an Nrf2-ETGE peptide is measured.
(§2) Surface Plasmon Resonance (SPR)
(§3) Peptide affinities to the Kelch domain of Keap1 is determined in a direct binding assay using 8K surface plasmon resonance (SPR) biosensor (Cytiva) at 20°C. Immobilization of Keap1 Kelch domain on a CM5 sensor chip (Cytiva) is performed using standard amine coupling procedure. The surface is washed with 10mM NaOH, 1M NaCl before activated with EDC/NHS (Cytiva), followed by immobilization of human Keap1 Kelch domain (A321-T609) fused with N-terminal 6x His-tag7 (in 10 mM MES, pH=6.4).
(§4) Finally, the surface is deactivated by Ethanolamine. Immobilization levels are typically 5000-6000 RU.
(§5) The reference spot is treated as described, omitting the injection of Keap1. Compound concentration series are injected over the immobilized protein in increasing concentrations using single cycle kinetics (SCK) in running buffer (10 mM HEPES, 150 mM NaCl, 0.05% Tween20, 1 mM TCEP, pH 7.4). A 1:1 Langmuir interaction model is fitted to the experimental traces, enabling determination of kon, koff and […]
(§6) In the time-resolved Förster resonance energy transfer (TR-FRET) assay8 the IC50 of inhibitors which […]
(§7) are determined. The TR-FRET is measured between a Tb-labelled mAb (Anti—6-His, Tb cryptate Gold, CisBio 61H12TLB) that binds to Keap 1 Kelch domain and d2-labelled SA-biotin-peptide.
(§8) The assay was performed in 384-well white low-volume, medium binding plates (Greiner Bio One, Austria) in 20 mM HEPES pH 7.5, 150 mM NaCl, 2 mM GSH (Sigma-Aldrich, USA),1mM EDTA (Sigma-Aldrich, USA), and 0.01% Pluronic F127 (MilliporeSigma, USA), with a final reaction volume of 10 µL.
(§9) To determine the ability of synthesized peptide to inhibit PPI between the Keap1 Kelch domain and Nrf2, 1nM purified human Keap1 Kelch domain (A321-T609) fused with N-terminal 6x His-tag, 5 nM biotinylated Nrf2 peptide ([…], Genescript, USA), d2-labeled streptavidin (Revvity, USA), and […] anti-His monoclonal antibody tagged with terbium cryptate (Revvity, USA), were incubated in the presence of varying concentrations of investigated peptides for 3 h at room […]
(§10) 7 Li X, Zhang D, Hannink M, Beamer LJ. Crystallization and initial crystallographic analysis of the Kelch domain from human Keap1. Acta
(§11) 8 S. Lee, D. Ali Abed, L. J. Beamer, L. Hu, Development of a Homogeneous Time-Resolved Fluorescence Resonance Energy Transfer (TR-

[2] = target: T2, interaction between the human Keap1 Kelch domain and an Nrf2-ETGE peptide (Homo sapiens, UniProt Q14145); experiment: Keap1-Nrf2 TR-FRET (HTRF) assay; type: binding; settings: Table 1; geometric mean ± sd of at least 3 independent repeats unless stated; read-out: TR-FRET IC50
T2 construct: 1nM purified human Keap1 Kelch domain (A321-T609) fused with N-terminal 6x His-tag; made in house
Description: as §1, §2, §3, §4, §5, §6, §7, §8, §9, §10, §11
Following the incubation, the PHERAstar FSX […] microplate reader was used to measure the acceptor and donor emissions at 665 nm and 620 nm, respectively. The acceptor/donor ratio was used to calculate relative energy transfer. Data was normalized by two-point normalization using neutral and inhibitor controls (neutral control: DMSO, inhibitor control: 0.1nM 2-[[4-[carboxymethyl-(4-methoxyphenyl)sulfonylamino]naphthale n-1-yl]-(4-methoxyphenyl)sulfonylamino]acetic acid; […]
parameter logistic fit and IC50 values were calculated using Genedata screener software (Genedata, […]

[3] = tested on: NQO1 gene expression in BEAS-2B cells (Homo sapiens); experiment: BEAS-2B NQO1 assay (qPCR of NQO1 mRNA); type: cell-based; settings: 24 h, concentrations of up to 10 μM
Description: The effect of peptides on Nrf2-dependent gene expression was investigated in BEAS-2B cells, where we determined the upregulation of the mRNA of NAD(P)H quinone dehydrogenase (NQO1) by qPCR. The expression of NQO1 is Nrf2-dependent and it is one of the two major quinone reductases, which play a crucial role in protecting cells from oxidative stress.[40] ^§§ In the context of this study we chose BEAS-2B cells as a representative model for epithelial cells. The presence of serum has been reported to affect BEAS-2B cell phenotype. Specifically, exposure of BEAS-2B to FBS has been associated with squamous differentiation, alteration in cytokine secretion and response to toxicants.[42–44] […] In order to improve the cellular uptake, we took of advantage of the 2C-PS moiety, which not only allows the easy synthesis of a variety of macrocycles of different ring sizes, but also permits the facile introduction of a diverse set of moieties, which could enhance cell permeability. We pursued a diverse set of strategies to make the Keap1 peptide more cell permeable, namely: masking of the acidic amino acids with methyl esters, introduction of polyarginine peptides, GWWG-polyarginine peptides or a long-chain fatty acid tag onto the staple, as well as peptide shortening and a combination of these. The rationale behind these strategies is explained herein, and details of their synthesis can be found in the ESI. ^†
Cellular Biology Experimental
(Thermo Fisher Scientific, USA).
calculated using QunatStudio 7 software.

[4] = single cycle kinetics, 1:1 Langmuir model

T1 sequence (Q14145 321-609): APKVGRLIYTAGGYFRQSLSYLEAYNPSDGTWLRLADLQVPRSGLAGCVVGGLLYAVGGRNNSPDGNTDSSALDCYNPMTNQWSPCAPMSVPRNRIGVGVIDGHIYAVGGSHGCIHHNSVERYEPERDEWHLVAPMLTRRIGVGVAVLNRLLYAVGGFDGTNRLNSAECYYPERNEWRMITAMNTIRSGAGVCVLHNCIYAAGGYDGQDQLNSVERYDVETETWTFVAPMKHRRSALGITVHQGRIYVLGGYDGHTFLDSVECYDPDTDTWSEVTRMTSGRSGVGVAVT
T2 sequence (Q14145 321-609): as above
NQO1 gene expression in BEAS-2B cells (Homo sapiens), sequence (Q14145 whole entry): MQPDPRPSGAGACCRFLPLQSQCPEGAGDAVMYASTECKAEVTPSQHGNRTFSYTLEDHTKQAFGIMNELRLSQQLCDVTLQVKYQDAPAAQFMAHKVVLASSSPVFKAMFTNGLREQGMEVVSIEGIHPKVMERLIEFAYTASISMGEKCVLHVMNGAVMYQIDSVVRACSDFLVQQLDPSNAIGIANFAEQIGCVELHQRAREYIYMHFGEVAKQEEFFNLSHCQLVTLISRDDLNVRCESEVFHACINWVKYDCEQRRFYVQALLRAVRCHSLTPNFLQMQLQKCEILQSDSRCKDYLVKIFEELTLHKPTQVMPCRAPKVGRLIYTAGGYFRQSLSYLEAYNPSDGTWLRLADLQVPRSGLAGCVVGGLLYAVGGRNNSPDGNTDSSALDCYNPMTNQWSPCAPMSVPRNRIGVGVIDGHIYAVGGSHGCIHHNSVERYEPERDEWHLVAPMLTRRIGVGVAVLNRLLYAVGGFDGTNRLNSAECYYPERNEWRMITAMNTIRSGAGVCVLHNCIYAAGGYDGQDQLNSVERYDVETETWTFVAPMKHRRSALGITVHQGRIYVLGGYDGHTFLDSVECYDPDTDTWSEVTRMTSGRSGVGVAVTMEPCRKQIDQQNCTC

Row | Compound | cytotoxicity in CellTiter Glo assay (BEAS-2B cells) | Kd ([1]; geometric mean ± sd of at least 3 independent repeats unless stated, 20°C) | koff [1, 4] | kon [1, 4] | IC50 [2] | induction of NQO1 mRNA (Nrf2-dependent gene expression) [3]
1 | CC1(C)CC[C@]2(C(=O)O)CC[C@]3(C)[C@H](C(=O)C=C4[C@@]5(C)C=C(C#N)C(=O)C(C)(C)[C@@H]5CC[C@]43C)[C@@H]2C1 [Bardoxolone, reference compound] | cytotoxic |  |  |  |  | 
2 | CCCCCCCCCCCCCCCCCC(=O)NCCCC[C@H](NC(=O)COCCOCCn1cc(COCCOCCNc2nc3cc(n2)CCSC[C@@H](C(=O)N[C@@H](CC(C)C)C(N)=O)NC(=O)[C@H](CCC(=O)O)NC(=O)CNC(=O)[C@H]([C@@H](C)O)NC(=O)[C@H](CCC(=O)O)NC(=O)[C@@H]2CCCN2C(=O)[C@H](CC(=O)O)NC(=O)[C@@H](NC(C)=O)CSCC3)nn1)C(=O)NCCOCCOCC(=O)NCCOCCOCC(N)=O [Peptide P8-H] | no cytotoxicity |  |  |  |  | 
3 | Ac-LQLDPETGEFL-NH2 [reference compound] |  | 52 ± 1.4 nM | 0.0079 s⁻¹ | 170000 M⁻¹ s⁻¹ | 5.3 ± 1.2 nM | did not lead to any induction

— publication PMC10566475, “A cell-active cyclic peptide targeting the Nrf2/Keap1 protein–protein interaction” (Chemical Science, 2023)
